Where “and” joins values, the source holds several entries; their conditions need not be identical. Identical values can stand only once. Like-named read-outs stand apart in the source and are kept apart here.
Columns and labels:
PH-IPF subjects [1] = experiment: Acute iNO: blood vessel volume by HRCT in PH-IPF subjects on LTOT; format: in vivo, human
Source text: This study was an exploratory, three-part, clinical study to assess the effect of pulsed iNO on functional pulmonary imaging parameters in subjects with PH-COPD on LTOT (Part 1) PH-IPF on LTOT (Part 2 and Part 3) (IK-7002-COPD-006; NCT02267655). The objective of this exploratory study was to examine the utility of high resolution computed tomography (HRCT) to measure changes in functional respiratory imaging parameters as a function of short term iNO administration using a pulsed NO delivery device in subjects with PH-IPF (Part 2 and Part 3) on LTOT. The primary endpoint in this exploratory study is the change from baseline in lobar blood volume at total lung capacity (TLC) after dosing with pulsed iNO (Part 1), iNO or Placebo (Part 2a) and after 4 weeks iNO treatment (Part 3b) as measured by HRCT.
This was an exploratory clinical study to evaluated the utility of HRCT to measure the pharmacodynamic effects of short term pulsed administration of iNO using a pulsed NO delivery device in subjects with PH-IPF (Part 2 and Part 3) on LTOT.
(§1) The 2 subjects enrolled in Part 2 were randomly assigned for Part 2a to 1 of 2 sequences to receive iNO utilizing the NO cylinder concentration (4,880 ppm) at a dose of 75 mcg/kg IBW/hr or placebo set at a dose of 75 mcg/kg IBW/hr.
(§2) The 2 subjects enrolled in Part 3a each received three different doses of iNO utilizing NO cylinder concentration (4,880 ppm) at a dose of 5 mcg/kg IBW/hr, 10 mcg/kg IBW/hr and 30 mcg/kg IBW/hr, all with LTOT. For each dose, the change in PAP pressure and the change in cardiac output was evaluated by RHC. The investigator could decide after each dose to continue with the following dose or not.
(§3) […], the vasodilation and the hemodynamics were assessed. During the chronic phase, the focus was exercise capacity. Oxygen saturation during exercise was evaluated both at baseline as well as after 4 weeks of chronic treatment with iNO. Both the acute and chronic phases evaluated iNO doses of 30 and 75 mcg/kg IBW/hr.

PH-COPD subjects [2] = experiment: Acute iNO: blood vessel volume by HRCT in PH-COPD subjects; format: in vivo, human; settings: acute assessment
Source text: (§4) This study is an open label Phase 1 study of iNO therapy in subjects with PH-COPD (PULSE-COPD-007; NCT03135860). The primary outcome of this study is the change in lobar blood volume at total lung capacity with iNO and the change in lobar blood volume with iNO after 4 weeks of treatment with iNO as measured by HRCT.
(§5) Subjects also had sPAP≥38 mm Hg as measured by echocardiogram, a post-bronchodilatory FEV1/FVC<0.7 and a FEV1<60% predicted. All subjects were at least 40 years old and were current or former smokers with at least 10 pack-years of tobacco cigarette smoking before study entry. All subjects also had been receiving LTOT for at least 3 months for at least 10 hours per day.
(§6) A further analysis was performed of seven PH-COPD subjects that completed 4 weeks of treatment with iNO at a dose of 30 mcg/kg IBW/hr. The 6MWD and sPAP results are also presented in FIGS. 10 and 11, respectively.

PH-IPF subjects [3] = experiment: Acute iNO: sPAP in PH-IPF subjects; format: in vivo, human
Source text: In Part 2 of the study the subjects needed to have severe PH, therefore PH in Part 2 was defined as sPAP≥50 mm Hg by 2-D echocardiogram. In Part 3 PH was defined as sPAP≥35 mm Hg by echocardiogram (Part 3).
as §1, §2, §3

PH-IPF subjects [4] = experiment: Safety of iNO dose in PH-IPF subjects (PAP, RHC-monitored titration); format: in vivo, human
Description: The safety endpoints in this study were: • 1. Incidence and severity of treatment emergent adverse events (AEs), including those related to device deficiency; • 2. Incidence of MetHb levels >7.0%; • 3. New symptoms that may be due to rebound PH associated with a temporal acute withdrawal of investigational study drug (i.e., symptoms occurring within 20 minutes of acute withdrawal and including those associated with investigational medical device malfunction or failure): systemic arterial oxygen desaturation, hypoxemia, bradycardia, tachycardia, systemic hypotension, near-syncope, syncope, ventricular fibrillation, and/or cardiac arrest; • 4. New or worsening symptoms of left heart failure or pulmonary edema; and • 5. Any decrease in systemic oxygenation measured by oxygen saturation of arterial blood by pulse oximetry (SpO2), i.e., hypoxia or oxygen saturation decrease, deemed by the Investigator to be clinically significant.
The initial protocol intended that 4 subjects would be enrolled in Part 2. […] It was decided to temporarily stop recruitment. One of the 2 subjects completed 4 weeks of chronic use in Part 2b.
In the amendment a total of 2 subjects participated in Part 3. The dose in Part 3 was lower than in Part 2 and each subject was titrated to the optimum dose as determined by the investigator. […] The dose was monitored with a RHC in place. […]

[5] = tested on: pulmonary arterial hypertension (PAH); settings: cited from earlier work
PH-COPD subjects [6] = experiment: Chronic iNO: six-minute walk distance (6MWD) in PH-COPD subjects; format: in vivo, human; settings: seven PH-COPD subjects, group value, iNO 30 mcg/kg/IBW, FIG. 10
Source text: Oxygen saturation can be measured before, during or after tests that assess exercise capacity. One approach to assess exercise capacity is the six-minute walk test, which provides the 6MWD. Other measurements that can be used to assess exercise capacity include, but are not limited to, shuttle walk test, activity level, forced exercise, maximal exercise test, treadmill, bicycle and cardiopulmonary exercise test.
as §4, §5
(§7) The PH-COPD subjects received pulsed iNO therapy for 4 weeks for at least 12 hours/day. The iNO was administered utilizing a 4,880 ppm NO cylinder concentration.
A further analysis was performed of seven PH-COPD subjects that completed 4 weeks of treatment with iNO at a dose of 30 mcg/kg IBW/hr. […]

PH-COPD subjects [7] = experiment: Chronic iNO: TAPSE in PH-COPD subjects; format: in vivo, human
Source text: (§8) One or more embodiments of the present invention also relate to maintaining and/or improving right ventricular (RV) function using long-term iNO therapy. Maintenance and/or improvements in RV function can be assessed by many echocardiographic measurements. One such quantitative approach to assess RV function is the measurement of the tricuspid annular plane systolic excursion (TAPSE). The TAPSE estimates RV systolic function by measuring the level of systolic excursion of the lateral tricuspid valve annulus towards the apex. An excellent correlation between the TAPSE and RV ejection fraction as assessed by radionuclide angiography has previously been established and the approach appears reproducible and proven to be a strong predictor of prognosis in heart failure. [Reference: Heart. 2006 April; 92(Suppl 1): i19-i26.]
as §4, §5, §7
These subjects were diagnosed with PH-COPD and received 4 weeks of treatment with iNO at a dose of 30 mcg/kg IBW/hr. The results verify the increase in TAPSE which correlates to RV function.

PH-COPD subjects [8] = experiment: Chronic iNO: sPAP by echocardiogram in PH-COPD subjects; format: in vivo, human; settings: group value, FIG. 11
Source text: as §4, §5, §7, §6
As shown in FIG. 10, the change in 6MWD after 2 weeks of iNO therapy is +53.9 meters (p=0.02). Similarly, the change in 6MWD after 4 weeks of iNO therapy is +50.7 meters (p=0.04). In the literature, 27-54 meter improvements in 6MWD are considered clinically significant as measured by patient perceptions of improvement.

PH-IPF subjects [9] = experiment: Chronic iNO: SpO2 during 6MWT in PH-IPF subjects; format: in vivo, human; settings: during exercise (6MWT)
Source text: The secondary endpoints of Part 2b (chronic dosing) were change in 6MWT with Borg CR10 leg fatigue and dyspnea scale and SpO2, at the beginning and end of the 6MWT and symptoms evaluated using a questionnaire with after 4 weeks use of iNO at a dose of 75 mcg/kg IBW/hr and 2 weeks post discontinuation of iNO.
The secondary endpoints of Part 3b (chronic dosing) were change in 6MWT with Borg CR10 leg fatigue and dyspnea scale and SpO2, at the beginning and end of the 6MWT and symptoms evaluated using a questionnaire after 4 weeks use of iNO at a dose of 30 mcg/kg IBW/hr.
In Part 2b and Part 3b change in 6MWT with Borg CR10 leg fatigue and dyspnea scale and SpO2, at the beginning and end of the 6MWT, and a symptoms questionnaire were used to assess the effects of long term pulsed iNO administered using a pulsed NO delivery device in subjects with PH associated with IPF on LTOT.
(§9) One patient from Part 2a entered into Part 2b. During Part 2b patient receive iNO utilizing NO cylinder concentration (4,880 ppm) at a dose of 75 mcg/kg IBW/hr during 4 weeks for at least 12 hours/day.
(§10) The 2 patients from Part 3a entered Part 3b. During Part 3b, patients received iNO utilizing NO cylinder concentration (4,880 ppm) at a dose of 30 mcg/kg IBW/hr.
as §3

PH-IPF subjects [10] = experiment: Chronic iNO: TAPSE (RV function) in PH-IPF subjects; format: in vivo, human
Source text: as §8, §9, §10
Subject 1 received pulsed iNO at a dose of 75 mcg/kg IBW/hr for 4 weeks, and Subject 3 received pulsed iNO at a dose of 30 mcg/kg IBW/hr for 4 weeks.

[11] = iNO 30 mcg/kg IBW/hr, PH-IPF Patients 3 and 4
[12] = Average of four PH-COPD subjects, iNO 30 mcg/kg IBW/hr for 4 weeks
[13] = Average of PH-IPF Subjects 1 (75) and 3 (30 mcg/kg IBW/hr), 4 weeks
[14] = PH-IPF Subject 1, pulsed iNO 75 mcg/kg IBW/hr for 4 weeks
[15] = PH-IPF Subject 3, pulsed iNO 30 mcg/kg IBW/hr for 4 weeks

[N]=O [iNO, nitric oxide]
Acute change in blood vessel volume (%) (PH-IPF subjects [1]; [11]): 2.8 ± 3.0% and 10.1 ± 3.4%
regional vasodilation in the lungs (targeting) (PH-IPF subjects [1]; iNO 30 mcg/kg IBW/hr, Patients 3 & 4, FIGS. 7 and 8): clear targeting of the drug
overall vasodilation (PH-IPF subjects [1]; iNO 30 mcg/kg IBW/hr, range over Patients 3 & 4): 2.8-10.1%
regional vasodilation in the lungs (targeting) (PH-IPF subjects [1]; iNO 75 mcg/kg IBW/hr, Patients 1 & 2, FIGS. 5 and 6): little to no targeted vasodilation
overall vasodilation (PH-IPF subjects [1]; iNO 75 mcg/kg IBW/hr, range over Patients 1 & 2): 14.2-34.2%
ventilation-vasodilation correlation (PH-COPD subjects [2]; PH-COPD subjects, p=0.03, FIG. 9): significant
increase in blood vessel volume on iNO (average) (PH-COPD subjects [2]; nine PH-COPD subjects, statistically significant): 4.2%
Acute Change in sPAP (%) (PH-IPF subjects [3]; [11]): −14.3% and −23.3%
Acute Change in sPAP (%) (PH-IPF subjects [3]; iNO 75 mcg/kg IBW/hr, PH-IPF Patients 1 and 2): −9.3% and −9.7%
PAP after discontinuation of iNO (PH-IPF subjects [4]; iNO 75 mcg/kg IBW/hr, the two IPF patients of Part 2): sudden increase in PAP after discontinuation
dose titration monitored with RHC (PH-IPF subjects [4]; iNO titrated to 30 mcg/kg IBW/hr, 2 subjects of Part 3): safely
efficacy for the treatment of PAH ([5]; iNO dose 25 mcg/kg IBW/hr, same previous clinical study): inefficacious
efficacy for the treatment of PAH ([5]; iNO dose 75 mcg/kg IBW/hr, previous clinical study): effective
change in 6MWD after 2 weeks of iNO therapy (PH-COPD subjects [6]; p=0.02): +53.9 meters
change in 6MWD after 4 weeks of iNO therapy (PH-COPD subjects [6]; p=0.04): +50.7 meters
TAPSE % Change, Average (PH-COPD subjects [7]; [12]): 25%
TAPSE Increase, Average (PH-COPD subjects [7]; [12]): 4
TAPSE 4 Week, Average (PH-COPD subjects [7]; Average of four PH-COPD subjects, iNO 30 mcg/kg IBW/hr for 4 weeks, baseline 16): 20
TAPSE after iNO therapy was discontinued (PH-COPD subjects [7]; PH-COPD subjects, N=5, FIG. 12): 19.0
TAPSE after chronic iNO therapy (PH-COPD subjects [7]; PH-COPD subjects, N=7, baseline 18.8 (N=6), FIG. 12): 21.3
sPAP 4 weeks after iNO therapy was discontinued (PH-COPD subjects [8]; PH-COPD subjects): 58.0 mm Hg
sPAP after 4 weeks of iNO therapy (PH-COPD subjects [8]; seven PH-COPD subjects, iNO 30 mcg/kg IBW/hr, baseline 60.3 mm Hg, p=0.02): 48.3 mm Hg
SpO2 Nadir (PH-IPF subjects [9]; 4 Weeks iNO 30 mcg/kg IBW/hr, Patient 3, baseline 83): 89
SpO2 Average (PH-IPF subjects [9]; 4 Weeks iNO 30 mcg/kg IBW/hr, Patient 3, baseline 88.9): 95.7
SpO2 Nadir (PH-IPF subjects [9]; 4 Weeks iNO 75 mcg/kg IBW/hr, Patient 1, baseline 76): 79
SpO2 Average (PH-IPF subjects [9]; 4 Weeks iNO 75 mcg/kg IBW/hr, Patient 1, baseline 89.4): 86.6
TAPSE % Change, Average (PH-IPF subjects [10]; [13]): 15%
TAPSE Increase, Average (PH-IPF subjects [10]; [13]): 3
TAPSE 4 Week, Average (PH-IPF subjects [10]; Average of PH-IPF Subjects 1 (75) and 3 (30 mcg/kg IBW/hr), 4 weeks, baseline 20): 23
TAPSE % Change (PH-IPF subjects [10]; [14]): 21%
TAPSE Increase (PH-IPF subjects [10]; [14]): 3
TAPSE 4 Week (PH-IPF subjects [10]; PH-IPF Subject 1, pulsed iNO 75 mcg/kg IBW/hr for 4 weeks, baseline 14): 17
TAPSE % Change (PH-IPF subjects [10]; [15]): 12%
TAPSE Increase (PH-IPF subjects [10]; [15]): 4
TAPSE 4 Week (PH-IPF subjects [10]; PH-IPF Subject 3, pulsed iNO 30 mcg/kg IBW/hr for 4 weeks, baseline 25): 28

Source: patent US20200188319A1, “Use Of Inhaled Nitric Oxide For The Treatment Of Pulmonary Hypertension Associated With Lung Disease” (Bellerophon Pulse Technologies LLC, priority 2017, published 2020)
